In ChEMBL document CHEMBL3045573, “Design, synthesis, and quantitative structure-activity relationship study of herbicidal analogues of pyrazolo[5,1-d][1,2,3,5]tetrazin-4(3H)ones” (2007):

Legend:
Type in all cases: functional
Settings in all cases: read-out: GI
[1] = system: Brassica rapa subsp. oleifera; assay: Herbicidal activity against Brassica rapa subsp. oleifera assessed as inhibition of root growth of rape seed at 10 ug/mL for 65 hr at 28 +/- 1 degC by root test
[2] = system: Brassica rapa subsp. oleifera; assay: Herbicidal activity against Brassica rapa subsp. oleifera assessed as inhibition of root growth of rape seed at 100 ug/mL for 65 hr at 28 +/- 1 degC by root test
Echinochloa crus-galli [3] = assay: Herbicidal activity against Echinochloa crus-galli (barnyard grass) assessed as inhibition of seedling growth at 100 ug/mL for 65 hr at 28 +/- 1 degC by cup test
Echinochloa crus-galli [4] = assay: Herbicidal activity against Echinochloa crus-galli (barnyard grass) assessed as inhibition of seedling growth at 10 ug/mL for 65 hr at 28 +/- 1 degC by cup test

| Structure (SMILES) | inhibition of growth at 10 µg/mL [1] | inhibition of growth at 100 µg/mL [2] | inhibition of growth at 100 µg/mL (Echinochloa crus-galli [3]) | inhibition of growth at 10 µg/mL (Echinochloa crus-galli [4]) |
| --- | --- | --- | --- | --- |
| CCCOc1cc(-n2nnc3c(C(=O)OCC)c(C(F)(F)F)nn3c2=O)c(F)cc1Cl | 0% | 5% | 20% | 0% |
| CCOC(=O)c1c(C(F)(F)F)nn2c(=O)n(-c3ccc(C(F)(F)F)cc3)nnc12 | 0% | 2% | 18% | 9% |
| CCOC(=O)c1c(C(F)(F)F)nn2c(=O)n(-c3cc(C(F)(F)F)ccc3Cl)nnc12 | 0% | 10% | 2% | 0% |
| CCOC(=O)c1c(SC)nn2c(=O)n(-c3cc(OC(C)C)c(Cl)cc3F)nnc12 | 0% | 13% | 20% | 0% |
| C=CCOc1cc(-n2nnc3c(C(=O)OCC)c(SC)nn3c2=O)c(F)cc1Cl | 0% | 25% | 22% | 0% |
| CCOC(=O)c1c(C(F)(F)F)nn2c(=O)n(-c3c(Cl)cc(C(F)(F)F)cc3Cl)nnc12 | 2% | 22% | 15% | 0% |
| CCCOc1cc(-n2nnc3c(C(=O)OCC)c(C)nn3c2=O)c(F)cc1Cl | 0% | 0% | 18% | 0% |
| CCOC(=O)c1c(C)nn2c(=O)n(-c3ccccc3C(F)(F)F)nnc12 | 5% | 86% | 6% | 0% |
| CCOC(=O)c1c(SC)nn2c(=O)n(-c3c(Cl)cc(C(F)(F)F)cc3Cl)nnc12 | 3% | 9% | 28% | 3% |
| C=CCOc1cc(-n2nnc3c(C(=O)OCC)c(C)nn3c2=O)c(F)cc1Cl | 0% | 0% | 24% | 0% |
| CCOC(=O)c1c(SC)nn2c(=O)n(-c3ccccc3C(F)(F)F)nnc12 | 0% | 23% | 0% | 0% |
| CCCOc1cc(-n2nnc3c(C(=O)OCC)c(SC)nn3c2=O)c(F)cc1Cl | 0% | 2% | 12% | 0% |
| CCOC(=O)c1c(C(F)(F)F)nn2c(=O)n(-c3ccc(Cl)c(C(F)(F)F)c3)nnc12 | 13% | 14% | 0% | 0% |
| CCOC(=O)c1c(C(F)(F)F)nn2c(=O)n(-c3ccccc3C(F)(F)F)nnc12 | 7% | 9% | 9% | 0% |
| CC#COc1cc(-n2nnc3c(C(=O)OCC)c(SC)nn3c2=O)c(F)cc1Cl | 0% | 0% | 32% | 0% |
| CCOC(=O)c1c(SC)nn2c(=O)n(-c3ccc(Cl)c(C(F)(F)F)c3)nnc12 | 22% | 24% | 26% | 0% |
| CCOC(=O)c1c(C(F)(F)F)nn2c(=O)n(-c3ccc(Cl)cc3C(F)(F)F)nnc12 | 0% | 0% | 21% | 0% |
| CC#COc1cc(-n2nnc3c(C(=O)OCC)c(C(F)(F)F)nn3c2=O)c(F)cc1Cl | 0% | 0% | 28% | 0% |
| CCOC(=O)c1c(C(F)(F)F)nn2c(=O)n(-c3cccc(C(F)(F)F)c3)nnc12 | 0% | 14% | 1% | 0% |
| CCOC(=O)c1c(SC)nn2c(=O)n(-c3cccc(C(F)(F)F)c3)nnc12 | 34% | 37% | 0% | 0% |
| CCOC(=O)c1c(SC)nn2c(=O)n(-c3cc(C(F)(F)F)ccc3Cl)nnc12 | 0% | 13% | 11% | 2% |
| CCOC(=O)c1c(C)nn2c(=O)n(-c3cc(C(F)(F)F)ccc3Cl)nnc12 | 61% | 65% | 0% | 0% |
| C=CCOc1cc(-n2nnc3c(C(=O)OCC)c(C(F)(F)F)nn3c2=O)c(F)cc1Cl | 0% | 2% | 16% | 0% |
| CCOC(=O)c1c(C)nn2c(=O)n(-c3ccc(Cl)c(C(F)(F)F)c3)nnc12 | 89% | 89% | 4% | 0% |
| CCOC(=O)c1c(C)nn2c(=O)n(-c3ccc(C(F)(F)F)cc3)nnc12 | 82% | 90% | 10% | 0% |
| CCOC(=O)c1c(C)nn2c(=O)n(-c3c(Cl)cc(C(F)(F)F)cc3Cl)nnc12 | 4% | 25% | 22% | 0% |
| CCOC(=O)c1c(SC)nn2c(=O)n(-c3ccc(C(F)(F)F)cc3)nnc12 | 4% | 18% | 22% | 2% |
| CCOC(=O)c1c(C)nn2c(=O)n(-c3ccc(Cl)cc3C(F)(F)F)nnc12 | 0% | 63% | 14% | 6% |
